Data taken from ChEMBL document CHEMBL3621090, “Discovery of a novel Kv7 channel opener as a treatment for epilepsy” (Bioorg Med Chem Lett, 2015).
pEC50: −log10 of the molar value.

What was measured:
Rattus norvegicus [1] = assay: Anticonvulsant activity in Sprague-Dawley rat assessed as protection against maximal electroshock-induced convulsion at 3 mg/kg, sc administered 30 mins prior to application of shock via corneal electrodes relative to control; format: functional
Plasma [2] = assay: Unbound plasma concentration in Sprague-Dawley rat at 1 mg/kg, sc administered at 30 mins by LC-MS/MS analysis; format: ADME, organism-based; conditions: in vivo, 0.5 h
[3] = biological target: Potassium voltage-gated channel subfamily KQT member 2/member 3 (Rattus norvegicus, UniProt O88943+O88944); assay: Activation of rat Kv7.2/7.3 expressed in CHOK1 cells; format: cell-based, CHO-K1
Plasma [4] = assay: Unbound plasma concentration in Sprague-Dawley rat at 30 mg/kg, sc administered at 30 mins by LC-MS/MS analysis; format: ADME, organism-based; conditions: in vivo, 0.5 h
[5] = biological target: T1, Potassium voltage-gated channel subfamily KQT member 4 (Homo sapiens) (UniProt P56696); assay: Activation of human Kv7.4 expressed in CHOK1 cells assessed as increase in current amplitude relative to control; format: cell-based; conditions: CHO-K1
T1 sequence (whole entry): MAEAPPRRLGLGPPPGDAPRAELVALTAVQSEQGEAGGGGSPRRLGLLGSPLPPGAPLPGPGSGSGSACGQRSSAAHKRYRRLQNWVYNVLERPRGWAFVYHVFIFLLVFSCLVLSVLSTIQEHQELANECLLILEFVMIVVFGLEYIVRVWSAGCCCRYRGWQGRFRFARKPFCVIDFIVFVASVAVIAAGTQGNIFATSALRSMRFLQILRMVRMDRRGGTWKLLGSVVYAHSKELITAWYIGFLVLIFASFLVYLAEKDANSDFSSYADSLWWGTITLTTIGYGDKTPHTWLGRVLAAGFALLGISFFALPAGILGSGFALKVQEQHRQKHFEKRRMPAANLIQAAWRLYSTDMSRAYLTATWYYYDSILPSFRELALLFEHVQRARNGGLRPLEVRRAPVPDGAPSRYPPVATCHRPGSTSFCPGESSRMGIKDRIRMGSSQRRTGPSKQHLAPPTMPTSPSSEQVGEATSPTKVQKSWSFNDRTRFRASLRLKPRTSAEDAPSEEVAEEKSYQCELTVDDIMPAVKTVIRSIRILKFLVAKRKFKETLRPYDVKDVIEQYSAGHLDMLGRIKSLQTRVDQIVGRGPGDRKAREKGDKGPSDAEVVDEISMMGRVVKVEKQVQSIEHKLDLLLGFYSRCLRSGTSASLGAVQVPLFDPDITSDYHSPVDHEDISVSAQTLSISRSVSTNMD

Rattus norvegicus [6] = assay: Anticonvulsant activity in Sprague-Dawley rat assessed as protection against maximal electroshock-induced convulsion at 1 mg/kg, po administered 60 mins prior to application of shock via corneal electrodes relative to control; format: functional
[7] = Activation of rat Kv7.3/7.5 expressed in CHOK1 cells; format: cell-based; conditions: CHO-K1

Sequence of Potassium voltage-gated channel subfamily KQT member 2/member 3 (O88943 whole entry): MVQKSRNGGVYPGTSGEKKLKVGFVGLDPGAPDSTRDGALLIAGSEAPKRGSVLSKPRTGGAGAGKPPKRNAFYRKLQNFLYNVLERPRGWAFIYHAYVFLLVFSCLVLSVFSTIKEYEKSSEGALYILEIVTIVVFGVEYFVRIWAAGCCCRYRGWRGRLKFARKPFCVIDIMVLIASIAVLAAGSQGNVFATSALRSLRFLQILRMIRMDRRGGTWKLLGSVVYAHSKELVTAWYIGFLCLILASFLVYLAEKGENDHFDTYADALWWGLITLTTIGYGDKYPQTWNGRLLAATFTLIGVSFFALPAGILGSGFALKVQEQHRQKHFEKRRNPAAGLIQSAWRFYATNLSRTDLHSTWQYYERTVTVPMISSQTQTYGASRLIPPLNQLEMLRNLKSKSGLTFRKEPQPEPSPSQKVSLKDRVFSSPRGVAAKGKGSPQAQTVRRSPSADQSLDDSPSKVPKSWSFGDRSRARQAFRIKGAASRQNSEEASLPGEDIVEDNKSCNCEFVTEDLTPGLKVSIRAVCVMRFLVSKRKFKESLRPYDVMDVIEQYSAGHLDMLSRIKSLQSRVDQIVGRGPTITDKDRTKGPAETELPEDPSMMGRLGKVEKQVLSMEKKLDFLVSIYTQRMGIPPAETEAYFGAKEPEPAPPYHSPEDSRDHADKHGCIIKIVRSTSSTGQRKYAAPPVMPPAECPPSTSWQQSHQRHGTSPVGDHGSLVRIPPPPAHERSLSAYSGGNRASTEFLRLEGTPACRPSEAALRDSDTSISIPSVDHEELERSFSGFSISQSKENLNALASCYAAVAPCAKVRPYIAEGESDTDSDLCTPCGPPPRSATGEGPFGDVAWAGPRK
Sequence of Potassium voltage-gated channel subfamily KQT member 2/member 3 (O88944 whole entry): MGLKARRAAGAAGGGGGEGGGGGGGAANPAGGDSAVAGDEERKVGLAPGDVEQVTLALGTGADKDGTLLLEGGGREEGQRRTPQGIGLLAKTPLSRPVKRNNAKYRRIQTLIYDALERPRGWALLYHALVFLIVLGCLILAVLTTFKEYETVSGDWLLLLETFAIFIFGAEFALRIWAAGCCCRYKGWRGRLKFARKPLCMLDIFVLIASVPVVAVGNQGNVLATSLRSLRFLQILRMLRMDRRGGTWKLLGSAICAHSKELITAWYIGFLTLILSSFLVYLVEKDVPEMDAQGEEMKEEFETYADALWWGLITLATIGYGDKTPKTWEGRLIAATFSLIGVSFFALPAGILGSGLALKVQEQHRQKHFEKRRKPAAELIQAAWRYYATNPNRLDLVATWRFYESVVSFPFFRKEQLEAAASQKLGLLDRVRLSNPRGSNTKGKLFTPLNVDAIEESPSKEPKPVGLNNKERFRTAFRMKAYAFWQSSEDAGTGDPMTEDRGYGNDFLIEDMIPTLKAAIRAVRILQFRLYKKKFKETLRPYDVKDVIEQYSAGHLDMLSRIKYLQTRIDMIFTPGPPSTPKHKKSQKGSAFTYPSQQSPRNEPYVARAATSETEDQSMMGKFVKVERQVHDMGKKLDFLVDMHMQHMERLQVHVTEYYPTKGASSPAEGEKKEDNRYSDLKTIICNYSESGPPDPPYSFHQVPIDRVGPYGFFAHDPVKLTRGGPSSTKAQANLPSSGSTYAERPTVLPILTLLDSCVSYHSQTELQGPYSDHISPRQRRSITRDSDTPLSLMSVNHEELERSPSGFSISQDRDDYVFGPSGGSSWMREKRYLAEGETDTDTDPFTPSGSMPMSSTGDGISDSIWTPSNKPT

- Cp(f) (Plasma [2]): 58 nM
- pEC50 [3]: 6.53
- Cp(f) (Plasma [4]): 305 nM
- Activity [5]: 163%
- pEC50 [7]: 5.88
SMILES: COc1nc(N2CCC(OC)CC2)nc(OC)c1NC(=O)CC(C)(C)C
- Activity (Rattus norvegicus [1]): 100%
- Activity (Rattus norvegicus [6]): 0%
